Measured values: publication PMC9408991, “Antitumor Effects of a New Retinoate of the Fungal Cytotoxin Illudin M in Brain Tumor Models” (International Journal of Molecular Sciences, 2022)

Assays:
[1] = tested on: retinoid-responsive elements (RARE); assay: RA reporter assay, F9 RARE-lacZ reporter cells; type: cell-based; conditions: 10 nM; control 45
Excerpt: More typical of retinoic acid is its contribution to cell differentiation during vertebrate embryonic development by interacting with nuclear receptors, which bind to specific retinoid-responsive elements (RARE) within the promoters of subordinate genes, activating their transcription. To verify that retinoate 2 also binds to RARE, we used a reporter assay with F9 teratocarcinoma cells featuring a RARE located within the cis-acting regulatory sequences of the human retinoic acid receptor alpha gene and immediately upstream of the E. coli lacZ genes, which thus acquire retinoid responsivity. LacZ expression in cells treated with various concentrations of 2 was then quantitated by densitometric analysis of β-galactosidase activity visualized by X-Gal staining.
The F9 embryonal carcinoma cell line, stably transfected with the 1.8 kb promoter sequence of RARb2 coupled to the lacZ gene, was used to measure active retinoids. The assay is appropriate for detection of all-trans RA but is able to detect other retinoid isomers as well. The F9 reporter cells were maintained in 10% FCS containing DMEM in the presence of 400 ug/mL G418. A day before the assay, F9 cell were seeded onto 24-well plates (100,000 cell/well). The cells were than treated with various concentrations of 2. […]

[2] = tested on: NE-4C neural stem cells; assay: Neuronal differentiation of NE-4C neural stem cells (β-tubulin III staining); type: cell-based, mouse; conditions: 10 nM, β-tubulin III staining
Description: NE-4C cells and their differentiated progeny neurons can be immunohistochemically distinguished by the presence of β-tubulin III only in the latter (Figure 3).
Astroglia cells grown on poly-L-lysine-coated glass cover slips were fixed with 4% paraformaldehyde in PBS for 20 min at room temperature and then permeabilized with Triton X-100 (0.1% v/v in PBS; 5 min). Nonspecific antibodies were blocked by incubation with 3% FBS in PBS (room temperature, 1 h). α-GFAP antibody (rabbit, DAKO) was used in a dilution of 1:2000 and was visualized by anti-rabbit IgG Alexa 594 (1:1000). DAPI (4′,6-diamidino-2-phenylindole) was used for nuclei staining. Fluorescence images were captured manually on a Zeiss Axiovert 200 M microscope fitted with 20- to 60-fold zoom and a Zeiss AxioCam MRm digital camera. Further applied antibodies were tubulin III (Sigma T5076), used at a dilution of 1:1000, and Annexin V. Cy3.18 (Sigma A4963).

With `CC1=C(/C=C/C(C)=C/C=C/C(C)=C/C(=O)O)C(C)(C)CCC1` [all-trans retinoic acid, reference compound] the “gray value (densitometric analysis of β-galactosidase activity)” value [1] was 175 and the “differentiation of NE-4C stem cells to neurons” value [2] was “differentiate to neurons”.
